Results published in PMC3827627 (ACS chemical biology, 2013).

Columns and labels:
PKA-RIα holoenzyme = PKA-RIα holoenzyme (Bos taurus, UniProt P00514); type: biochemical; conditions: for EC50: read-out: RIα EC50, LiReC assay, 6 nM PKA holoenzyme, 3 nM TR-IP20
RIIβ-S112A holoenzyme = RIIβ-S112A holoenzyme (Rattus norvegicus, UniProt P12369, S112A); type: biochemical; conditions: LiReC assay; for EC50: read-out: RIIβ EC50, RIIβ-S112A holoenzyme, 6 nM PKA holoenzyme, 3 nM TR-IP20
Chain of RIIβ-S112A holoenzyme (P12369 108-402 S112A): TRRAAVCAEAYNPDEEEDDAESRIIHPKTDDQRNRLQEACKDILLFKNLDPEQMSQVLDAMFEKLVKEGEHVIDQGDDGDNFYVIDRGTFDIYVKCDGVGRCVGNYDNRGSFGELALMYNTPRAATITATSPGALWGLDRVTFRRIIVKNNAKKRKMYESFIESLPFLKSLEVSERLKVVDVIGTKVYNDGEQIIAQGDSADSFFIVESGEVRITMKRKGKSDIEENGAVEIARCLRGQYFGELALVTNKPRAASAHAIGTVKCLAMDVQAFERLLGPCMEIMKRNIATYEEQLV

Chain of PKA-RIα holoenzyme (P00514 92-380): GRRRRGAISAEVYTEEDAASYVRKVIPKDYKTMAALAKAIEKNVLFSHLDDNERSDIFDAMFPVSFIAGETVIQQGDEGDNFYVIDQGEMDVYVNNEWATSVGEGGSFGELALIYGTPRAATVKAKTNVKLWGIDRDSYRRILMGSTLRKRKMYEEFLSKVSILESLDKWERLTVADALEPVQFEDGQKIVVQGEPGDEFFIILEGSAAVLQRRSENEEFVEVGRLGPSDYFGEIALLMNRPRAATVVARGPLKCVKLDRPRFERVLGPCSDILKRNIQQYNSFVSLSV

Row | Compound | EC50 (PKA-RIα holoenzyme) [µM] | EC50 (RIIβ-S112A holoenzyme) [µM] | activation of RIIβ holoenzymes (in words) (RIIβ-S112A holoenzyme) | fold increase in EC50 relative to cAMP (PKA-RIα holoenzyme; RIα holoenzyme, HE33 vs cAMP) [fold]
1 | 2-OMe cAMP | 5.67 |  |  | 
2 | O=C(Nc1ncnc2c1ncn2[C@@H]1O[C@@H]2COP(=O)(O)OC2C1O)c1ccccc1 (stereo in doubt) [6-Bnz cAMP] | 0.17 | 0.035 |  | 
3 | Nc1nc(Cl)nc2c1ncn2[C@@H]1O[C@@H]2COP(=O)(O)OC2[C@@H]1O (stereo partly shown) [2-Cl cAMP] | 0.042 | 0.045 |  | 
4 | O=[P@]1(S)OC[C@H]2O[C@@H](n3cnc4cc(Cl)c(Cl)cc43)[C@H](O)[C@@H]2O1 [5,6 DCl BIMPS] | 0.27 | 0.129 |  | 
5 | CCCC(=O)Nc1ncnc2c1ncn2[C@@H]1O[C@@H]2COP(=O)(O)O[C@H]2[C@H]1O [6-MB cAMP] | 0.14 | 0.039 | potent RIIβ activators | 
6 | CC(C)(C)NC(=O)Nc1ncnc2c1ncn2[C@@H]1O[C@@H]2COP(=O)(O)O[C@H]2[C@H]1O [6-MBC cAMP] | 0.289 | 0.059 |  | 
7 | O=P1(O)OC[C@H]2O[C@@H](n3cnc4c(Nc5ccccc5)ncnc43)[C@@H](O)C2O1 (stereo partly shown) [6-Phe cAMP] | 0.092 | 0.02 |  | 
8 | NCCCCCCNc1nc2c(N)ncnc2n1[C@@H]1O[C@@H]2COP(=O)(O)O[C@H]2[C@H]1O [8-AHA cAMP] | 0.116 | 0.197 |  | 
9 | Nc1ncnc2c1nc(Br)n2[C@@H]1O[C@@H]2COP(=O)(O)O[C@H]2[C@H]1O [8-Br cAMP] | 0.081 | 0.184 |  | 
10 | Nc1ncnc2c1nc(Sc1ccc(Cl)cc1)n2[C@@H]1O[C@@H]2COP(=O)(O)O[C@H]2[C@H]1O [8-CPT cAMP] | 0.033 | 0.149 |  | 
11 | Nc1ncnc2c1nc(Cl)n2[C@@H]1O[C@@H]2COP(=O)(O)O[C@H]2[C@H]1O [8-Cl cAMP] | 0.058 | 0.275 |  | 
12 | CCCCCCNc1nc2c(N)ncnc2n1[C@@H]1O[C@@H]2COP(=O)(O)OC2[C@@H]1O (stereo partly shown) [8-HA cAMP] | 0.358 | 1.15 |  | 
13 | CNc1nc2c(N)ncnc2n1[C@@H]1O[C@@H]2COP(=O)(O)O[C@H]2[C@H]1O [8-MA cAMP] | 0.102 | 0.223 |  | 
14 | Nc1ncnc2c1nc(N1CCCCC1)n2[C@@H]1O[C@@H]2COP(=O)(O)O[C@H]2[C@H]1O [8-PIP cAMP] | 1.02 | 3.95 |  | 
15 | CCCN(CCC)c1ncnc2c1ncn2[C@@H]1O[C@@H]2COP(=O)(O)O[C@H]2[C@H]1O [HE33] | 0.414 | 0.045 |  | 10
16 | Nc1ncnc2c1ncn2[C@@H]1O[C@@H]2COP(O)(=S)O[C@H]2[C@H]1O (stereo partly shown) [Sp cAMP] | 1.59 | 2.27 |  | 
17 | O=P1(S)OCC2OC(n3cnc4cc(Cl)c(Cl)cc43)C(O)C2O1 (stereo not shown) [Sp-5,6-DCl BIMPS] | 0.344 | 0.083 |  | 
18 | Nc1ncnc2c1nc(Br)n2[C@@H]1O[C@@H]2COP(O)(=S)O[C@H]2[C@H]1O (stereo partly shown) [Sp-8-B cAMP] | 1.35 | 0.435 |  | 
19 | Nc1ncnc2c1nc(Sc1ccc(Cl)cc1)n2[C@@H]1O[C@@H]2CO[P@](=O)(S)O[C@H]2[C@H]1O [Sp-8-CPT cAMP] | 0.342 | 0.096 |  | 
20 | Nc1ncnc2c1nc(N1CCCCC1)n2[C@@H]1O[C@@H]2COP(O)(=S)O[C@@H]2C1O (stereo partly shown) [Sp-8-PIP cAMP] | 5.05 | 2.96 |  | 
21 | Nc1nc2c(ncn2[C@@H]2O[C@@H]3COP(=O)(O)O[C@H]3[C@H]2O)c(=O)[nH]1 [cGMP] | 15 | 5.08 |  | 
